Seven molecules from patent publication US20240376097A1, “BCL-2 Inhibitor” (BeiGene Ltd., priority 2020, published 2024) can be followed below.

In series [1] the target is recombinant human Bcl-2-G101V protein (Homo sapiens (Human), UniProt P10415, G101V). In words: Bcl-2-G101V TR-FRET Assay. In kind it is binding. As to conditions: Bcl-2 G101V mutant, TR-FRET; read-out: Biochemical assay (IC50, nM) Bcl-2 G101V. Summed up: (§1)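 Displacement of ligand from recombinant human Bcl-2-G101V measured by TR-FRET (ex337 nm, em490/520 nm), inhibition derived from the 490/520 ratio across compound titrations. IC50 from four-parameter logistic fit.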

For series [2], the system named is recombinant human Bcl-2-G101V protein. In words: Bcl-2-G101V TR-FRET Assay. In kind it is binding. As to conditions: ratio of biochemical IC50 Bcl-2 G101V / Bcl-2 WT. Summed up:
as §1
In general terms: TR-FRET usually uses a lanthanide donor and a delayed reading to cut background.

Series [3] deals with recombinant human Bcl-2 D103Y protein (Homo sapiens (Human), UniProt P10415, D103Y). In words: Bcl-2-D103Y Biochemical Assay (TR-FRET). The series is classed as binding. To be noted: for IC50: TR-FRET, FITC labeled Bak peptide; for Ratio of Bcl-2 D103Y/Bcl-2 WT: ratio of IC50. Summed up: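 Recombinant human Bcl-2 D103Y binding to its ligand measured by TR-FRET (ex 337 nm, em 490/520 nm) with increasing compound concentrations. Percent inhibition from the 490/520 nm ratio; IC50 from four-parameter logistic fit.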

Series [4] concerns RS4;11 (BCL-2 dependent acute lymphoblastic leukemia cell line). In words: RS4;11 Cell Proliferation Assay. The series is classed as cell-based. To be noted: Homo sapiens, RS4;11 cells, read-out: Cellular proliferation assay (IC50, nM) RS4. Summed up: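 RS4;11 cells, 50,000 per well in RPMI-1640 with 10% FBS, treated 48 h at 37 °C with a 10-point dilution series topping at 1 μM. Viability read by CellTiter-Glo ATP luminescence; mean IC50 reported.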

Series [5] concerns the target Recombinant human Bcl-2 protein (Homo sapiens (Human), UniProt P10415). Put plainly: Bcl-2 TR-FRET Assay. The series is classed as binding. Summed up: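 0.05 nM Bcl-2 pre-incubated 0.5 h at room temperature with 10-point compound dilutions (top final 1, 0.1, 0.02 or 0.01 uM) in 20 mM potassium phosphate pH 7.5, 50 mM NaCl, 1 mM EDTA, 0.05% Tween-20, 0.01% BSA; FITC-Bak peptide (0.5 nM) and anti-6His Tb cryptate added, 1 h. IC50 from four-parameter logistic fit.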

Series [6] is described as follows: Metabolic Stability Study, liver microsome incubation (human). In kind it is in vitro ADME. To be noted: human liver microsomes 0.5 mg/mL, 1 μM compound, NADPH; for half-life at 1 μM: NA^# = very stable, beyond the detection limits, read-out: T1/2 (min) Human; for microsomal CLint at 1 μM: read-out: CLint (μL × min^−1 × mg^−1) Human. Summed up: (§2)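 Test compounds (1 μM) incubated at 37° C with 0.5 mg/mL liver microsomes plus NADPH regenerating system; samples quenched at 0, 30 and 60 min. Parent loss measured by LC-MS/MS, giving CLint and T1/2, with CLint normalised to microsomal protein concentration.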

Series [7] can be described thus: Metabolic Stability Study, liver microsome incubation (mouse). The series is classed as in vitro ADME. To be noted: mouse liver microsomes 0.5 mg/mL, 1 μM compound, NADPH; for half-life at 1 μM: NA^# = very stable, beyond the detection limits, read-out: T1/2 (min) mouse; for microsomal CLint at 1 μM: read-out: CLint (μL × min^−1 × mg^−1) mouse. Summed up:
as §2
On the technique in general: Microsomes from liver hold many membrane-bound enzymes, among them those of drug oxidation.

Where [8] appears, read: Bcl-2 wild type, TR-FRET, read-out: Biochemical assay (IC50, nM) Bcl-2 WT.
Setting [9] is: wild type Bcl-2, unit inferred, read-out: Bcl-2 WT.

Molecules are shown by their SMILES. Read-outs that look alike come from different tables or passages of the source.

With `CC(C)c1ccccc1C1CN(Cc2ccc(C(F)(F)F)cc2)CCN1C1CC2(CCN(c3ccc(C(=O)NS(=O)(=O)c4ccc(NC[C@H]5CC[C@](C)(O)CC5)c([N+](=O)[O-])c4)c(Oc4cnc5[nH]ccc5c4)c3)CC2)C1` (some centres unmarked) [Example 41, 2-((1H-pyrrolo[2,3-b]pyridin-5-yl)oxy)-N-((4-((((1r,4r)-4-hydroxy-4-methylcyclohexyl)methyl)amino)-3-nitrophenyl)sulfonyl)-4-(2-(2-(2-isopropylphenyl)-4-(4-(trifluoromethyl)benzyl)piperazin-1-yl)-7-azaspiro[3.5]nonan-7-yl) benzamide], the IC50 was 3.8 nM in series [1]; 3100 pM in series [3]; 0.74 nM in series [4]; 0.83 nM in series [5] (setting [8]); 0.83 nM in series [5] (setting [9]). In addition, the “Ratio of Bcl-2 G101V/WT” value in series [2] came to 4.6. For the same molecule, the “Ratio of Bcl-2 D103Y/Bcl-2 WT” value in series [3] was 3.7. The half-life at 1 μM in series [6] was found to be 997 min; in series [7], 683 min. Further, the microsomal CLint at 1 μM in series [6] was 1.4 µL/min/mg; in series [7] it was 2 µL/min/mg.

For `CC(C)c1ccccc1C1CN(Cc2cccc(F)c2)CCN1C1CC2(CCN(c3ccc(C(=O)NS(=O)(=O)c4ccc(NC[C@H]5CC[C@](C)(O)CC5)c([N+](=O)[O-])c4)c(Oc4cnc5[nH]ccc5c4)c3)CC2)C1` (some centres unmarked) [Example 43, 2-((1H-pyrrolo[2,3-b]pyridin-5-yl)oxy)-4-(2-(4-(3-fluorobenzyl)-2-(2-isopropylphenyl)piperazin-1-yl)-7-azaspiro[3.5]nonan-7-yl)-N-((4-((((1r,4r)-4-hydroxy-4-methylcyclohexyl)methyl)amino)-3-nitrophenyl)sulfonyl)benzamide], the IC50 worked out at 1.3 nM in series [1]; 830 pM in series [3]; 0.48 nM in series [4]; 0.31 nM in series [5] (setting [8]); 0.31 nM in series [5] (setting [9]). Further, in series [2], the “Ratio of Bcl-2 G101V/WT” value is reported as 4.2. In addition, in series [3], the “Ratio of Bcl-2 D103Y/Bcl-2 WT” value amounted to 2.7. Moreover, the half-life at 1 μM in series [6] worked out at 108 min; in series [7], 193 min. Besides, the microsomal CLint at 1 μM in series [6] was 12.8 µL/min/mg; in series [7] it was 7.1 µL/min/mg.

As for `CC(C)c1ccccc1C1CN(Cc2ccccc2F)CCN1C1CC2(CCN(c3ccc(C(=O)NS(=O)(=O)c4ccc(NC[C@H]5CC[C@](C)(O)CC5)c([N+](=O)[O-])c4)c(Oc4cnc5[nH]ccc5c4)c3)CC2)C1` (some centres unmarked) [Example 46, 2-((1H-pyrrolo[2,3-b]pyridin-5-yl)oxy)-4-(2-(4-(2-fluorobenzyl)-2-(2-isopropylphenyl)piperazin-1-yl)-7-azaspiro[3.5]nonan-7-yl)-N-((4-((((1r,4r)-4-hydroxy-4-methylcyclohexyl)methyl)amino)-3-nitrophenyl)sulfonyl)benzamide], the IC50 came to 2.7 nM in series [1]; 1800 pM in series [3]; 0.91 nM in series [4]; 0.34 nM in series [5] (setting [8]); 0.34 nM in series [5] (setting [9]). In series [2], the “Ratio of Bcl-2 G101V/WT” value turned out to be 7.9. Besides, the “Ratio of Bcl-2 D103Y/Bcl-2 WT” value in series [3] came to 5.1. Moreover, the half-life at 1 μM in series [6] is 153 min; in series [7] it was 131 min. Moreover, the microsomal CLint at 1 μM in series [6] is 9.1 µL/min/mg; in series [7] it was 10.5 µL/min/mg.

Consider `COc1ccc(CN2CCN(C3CC4(CCN(c5ccc(C(=O)NS(=O)(=O)c6ccc(NC[C@H]7CC[C@](C)(O)CC7)c([N+](=O)[O-])c6)c(Oc6cnc7[nH]ccc7c6)c5)CC4)C3)C(c3ccccc3C(C)C)C2)c(OC)c1` (some centres unmarked) [Example 48], for which the IC50 was determined as 0.33 nM in series [1]; 200 pM in series [3]; 0.43 nM in series [4]; 0.072 nM in series [5] (setting [8]); 0.072 nM in series [5] (setting [9]). Further, the “Ratio of Bcl-2 G101V/WT” value in series [2] stood at 4.6. For the same molecule, the “Ratio of Bcl-2 D103Y/Bcl-2 WT” value in series [3] turned out to be 2.8. In addition, the half-life at 1 μM in series [6] was 256 min; in series [7], 323 min. Besides, the figures for the microsomal CLint at 1 μM in series [6] and in series [7] were 5.4 µL/min/mg and 4.3 µL/min/mg, respectively.

Regarding `CC(C)c1ccccc1C1CN(Cc2cc(F)cc(F)c2)CCN1C1CC2(CCN(c3ccc(C(=O)NS(=O)(=O)c4ccc(NC[C@H]5CC[C@](C)(O)CC5)c([N+](=O)[O-])c4)c(Oc4cnc5[nH]ccc5c4)c3)CC2)C1` (some centres unmarked) [Example 51, 2-((1H-pyrrolo[2,3-b]pyridin-5-yl)oxy)-4-(2-(4-(3,5-difluorobenzyl)-2-(2-isopropylphenyl)piperazin-1-yl)-7-azaspiro[3.5]nonan-7-yl)-N-((4-((((1r,4r)-4-hydroxy-4-methylcyclohexyl)methyl)amino)-3-nitrophenyl)sulfonyl)benzamide], the IC50 in series [1] is 1.6 nM; in series [3] it was 1500 pM; in series [4], 0.49 nM; in series [5] (setting [8]), 0.42 nM; in series [5] (setting [9]) it was 0.42 nM. Moreover, the “Ratio of Bcl-2 G101V/WT” value in series [2] was determined as 3.8. Besides, in series [3], the “Ratio of Bcl-2 D103Y/Bcl-2 WT” value was found to be 3.5. For the same molecule, the values for the half-life at 1 μM in series [6] and in series [7] were 234 min and 306 min, respectively. The microsomal CLint at 1 μM in series [6] was found to be 5.9 µL/min/mg; in series [7] it was 4.5 µL/min/mg.

For the molecule `CC(C)c1ccccc1C1CN(Cc2ccc(F)c(F)c2)CCN1C1CC2(CCN(c3ccc(C(=O)NS(=O)(=O)c4ccc(NC[C@H]5CC[C@](C)(O)CC5)c([N+](=O)[O-])c4)c(Oc4cnc5[nH]ccc5c4)c3)CC2)C1` (some centres unmarked) [Example 52, 2-((1H-pyrrolo[2,3-b]pyridin-5-yl)oxy)-4-(2-(4-(3,4-difluorobenzyl)-2-(2-isopropylphenyl)piperazin-1-yl)-7-azaspiro[3.5]nonan-7-yl)-N-((4-((((1r,4r)-4-hydroxy-4-methylcyclohexyl)methyl)amino)-3-nitrophenyl)sulfonyl)benzamide], the IC50 came out at 0.73 nM in series [1]; 610 pM in series [3]; 0.36 nM in series [4]; 0.24 nM in series [5] (setting [8]); 0.24 nM in series [5] (setting [9]). Also, the “Ratio of Bcl-2 G101V/WT” value in series [2] came to 3.0. The “Ratio of Bcl-2 D103Y/Bcl-2 WT” value in series [3] stood at 2.5. In addition, the half-life at 1 μM in series [6] was determined as 145 min. For the same molecule, the microsomal CLint at 1 μM was 9.5 µL/min/mg in series [6] and under 1 µL/min/mg in series [7].

For `COc1ccc(CN2CCN(C3CC4(CCN(c5ccc(C(=O)NS(=O)(=O)c6ccc(NC[C@H]7CC[C@](C)(O)CC7)c([N+](=O)[O-])c6)c(Oc6cnc7[nH]ccc7c6)c5)CC4)C3)C(c3ccccc3C(C)C)C2)cn1` (some centres unmarked) [Example 72, 2-((1H-pyrrolo[2,3-b]pyridin-5-yl)oxy)-N-((4-((((1r,4r)-4-hydroxy-4-methylcyclohexyl)methyl)amino)-3-nitrophenyl)sulfonyl)-4-(2-(2-(2-isopropylphenyl)-4-((6-methoxypyridin-3-yl)methyl)piperazin-1-yl)-7-azaspiro[3.5]nonan-7-yl)benzamide], the IC50 in series [1] came to 0.2 nM; in series [3], 80 pM; in series [4] it was 0.45 nM; in series [5] (setting [8]), 0.05 nM; in series [5] (setting [9]), 0.05 nM. Besides, the “Ratio of Bcl-2 G101V/WT” value in series [2] is on record as 4. In addition, in series [3] (comparison in words), the “ratio of Bcl-2 D103Y/Bcl-2 wt, compared with F91b in WO2019210828” value was “significantly lower”. Moreover, the “Ratio of Bcl-2 D103Y/Bcl-2 WT” value in series [3] came to 1.6. Also, the half-life at 1 μM stood at 491 min in series [6] and 159 min in series [7]. The figures for the microsomal CLint at 1 μM in series [6] and in series [7] were 2.8 µL/min/mg and 8.7 µL/min/mg, respectively.
